In patent US10385014B2, “Acyloxyalkyl carbamate prodrugs, methods of synthesis and use” (ARBOR PHARMACEUTICALS, LLC, priority 2003, dated 2019):

Experiments:
[1] = Prodrug stability in human liver S9; assay type: in vitro ADME; conditions: Human Liver S9 (0.5 mg/mL), 2.0 μM, NADPH, 37° C.
Method: (§1) The stabilities of prodrugs were evaluated in one or more in vitro systems using a variety of tissue preparations following methods known in the art. The chemical stability of prodrugs in aqueous buffers at pH's of 2.0, 7.4 and 8.0 were also measured. […] Each preparation was incubated with test compound at 37° C. for one hour. Aliquots (50 μL) were removed at 0, 30, and 60 min and quenched with 0.1% trifluoroacetic acid in acetonitrile. Samples were then centrifuged and analyzed by LC/MS/MS (see Example 86 below for method details).

[2] = tested on: pancreatin; assay: Pancreatin stability; assay type: in vitro ADME, porcine; conditions: 1% (w/v) pancreatin, 5 μM, pH 7.5, 37° C.
Method: Pancreatin Stability: Stability studies were conducted by incubating prodrug (5 μM) with 1% (w/v) pancreatin (Sigma, P-1625, from porcine pancreas) in 0.025 M Tris buffer containing 0.5 M NaCl (pH 7.5) at 37° C. for 60 min. The reaction was stopped by addition of 2 volumes of methanol. After centrifugation at 14,000 rpm for […], the supernatant was removed and analyzed by LC/MS/MS.

[3] = Prodrug stability in rat liver S9; assay type: in vitro ADME; conditions: Rat Liver S9 (0.5 mg/mL), 2.0 μM, NADPH, 37° C.
Method: as §1

[4] = Prodrug stability in human plasma in vitro; assay type: in vitro ADME; conditions: 2.0 μM, 37° C.
Method: as §1

[5] = Prodrug stability in rat plasma in vitro; assay type: in vitro ADME; conditions: 2.0 μM, 37° C.
Method: as §1

[6] = Caco-2 homogenate S9 stability; assay type: in vitro ADME; conditions: Caco-2 S9 (0.5 mg protein per mL), 5 μM, 37° C.
Method: Caco-2 Homogenate S9 Stability: Caco-2 cells were grown for 21 days prior to harvesting. Culture medium was removed and cell monolayers were rinsed and scraped off into ice-cold 10 mM sodium phosphate/0.15 M potassium chloride, pH 7.4. Cells were lysed by sonication at 4° C. using a probe sonicator. Lysed cells were then transferred into 1.5 mL centrifuge vials and centrifuged at 9000 g for 20 min at 4° C. The resulting supernatant (Caco-2 cell homogenate S9 fraction) was aliquoted into 0.5 mL vials and stored at −80° C. until used.
For stability studies, prodrug (5 μM) was incubated in Caco-2 homogenate S9 fraction (0.5 mg protein per mL) for 60 min at 37° C. Concentrations of intact prodrug and released baclofen were determined at zero time and 60 minutes using LC/MS/MS.

[7] = Chemical stability of prodrugs in aqueous buffers; assay type: physicochemical
Method: as §1

[8] = tested on: Caco-2 cells; assay: Caco-2 cellular permeability of prodrugs; assay type: in vitro ADME; conditions: Caco-2 monolayer, ratio of Papp values
Method: For example, cellular permeability may be evaluated by examining the flux of a prodrug across a cultured polarized cell monolayer (e.g., Caco-2 cells). Caco-2 cells obtained from continuous culture (passage less than 28) were seeded at high density onto Transwell polycarbonate filters. Cells were maintained with DMEM/10% fetal calf serum+0.1 mM nonessential amino acids+2 mM L-Gln, 5% CO2/95% O2, 37° C. until the day of the experiment. Permeability studies were conducted at pH 6.5 apically (in 50 mM MES buffer containing 1 mM CaCl2, 1 mM MgCl2, 150 mM NaCl, 3 mM KCl, 1 mM NaH2PO4, 5 mM glucose) and pH 7.4 basolaterally (in Hanks' balanced salt solution containing 10 mM HEPES) in the presence of efflux pump inhibitors (250 μM MK-571, 250 μM Verapamil, 1 mM Ofloxacin). Inserts were placed in 12 or 24 well plates containing buffer and incubated for 30 min at 37 C.°. Prodrug (200 μM) was added to the apical or basolateral compartment (donor) and concentrations of prodrug and/or released parent drug in the opposite compartment (receiver) were determined at intervals over 1 hour using LC/MS/MS. Values of apparent permeability (Papp) were calculated using the equation: Papp=Vr(dC/dt)//(ACo)
Here Vr is the volume of the receiver compartment in mL; dC/dt is the total flux of prodrug and parent drug (μM/s), determined from the slope of the plot of concentration in the receiver compartment versus time; Co is the initial concentration of prodrug in μM; A is the surface area of the membrane in cm^2.

[9] = animal models; cited from earlier work

Compound	% of Prodrug Remaining after 60 min [1] [%]	% of Prodrug Remaining after 60 min [2] [%]	% of Prodrug Remaining after 60 min [3] [%]	% of Baclofen Released after 60 min [4] [%]	% of Prodrug Remaining after 60 min [5] [%]	% of Prodrug Remaining after 60 min [6] [%]	% of Baclofen Released after 60 min ([7]; aqueous buffer pH 2.0, 37° C.) [%]	% of Baclofen Released after 60 min ([7]; aqueous buffer pH 7.4, 37° C.) [%]	% of Baclofen Released after 60 min ([7]; aqueous buffer pH 8.0, 37° C.) [%]	% of Prodrug Remaining after 60 min ([7]; aqueous buffer pH 8.0, 37° C.) [%]	% of Baclofen Released after 60 min [1] [%]	% of Baclofen Released after 60 min [3] [%]	% of Prodrug Remaining after 60 min [4] [%]	% of Baclofen Released after 60 min [5] [%]	% of Baclofen Released after 60 min [6] [%]	Ratio A-B/B-A [8]	% of Prodrug Remaining after 60 min ([7]; aqueous buffer pH 2.0, 37° C.) [%]	% of Prodrug Remaining after 60 min ([7]; aqueous buffer pH 7.4, 37° C.) [%]	% of Baclofen Released after 60 min [2] [%]	absorption following administration into the colon [9]
O=C([O-])C[C@@H](CNC(=O)OCOC(=O)CCc1ccccc1)c1ccc(Cl)cc1.[Na+] [(62), Sodium 4-[(3-Phenylpropionovloxymethoxy)carbonylamino]-(3R)-(4-chlorophenyl)-butanoate]	0	1	2	2	5	1	0	2	8											
CCCC(=O)O[C@H](OC(=O)NC[C@H](CC(=O)[O-])c1ccc(Cl)cc1)C(C)C.[Na+] [(90), Sodium 4-{[(1R)-Butanoyloxyisobutoxy]carbonylamino}-(3R)-(4-chlorophenyl)-butanoate]	1	9	3	2	5	5	0	0	1	93										
CC(C)C(=O)OCOC(=O)NC[C@H](CC(=O)[O-])c1ccc(Cl)cc1.[Na+] [(18), Sodium 4-[(Isobutanoyloxymethoxy)carbonylamino]-(3R)-(4-chlorophenyl)-butanoate]	2	2	1	27	39	1	0	0	0	102	100	100	61	60	100	1.1	105	95		
CC(C)C(=O)O[C@H](OC(=O)NC[C@H](CC(=O)[O-])c1ccc(Cl)cc1)C(C)C.[Na+] [(100), Sodium 4-{[(1R)-Isobutanoyloxyisobutoxy]carbonylamino}-(3R)-(4-chlorophenyl)-butanoate]	1		3	3	9	7	0	0	0											
CCCC(=O)OC(OC(=O)NC[C@H](CC(=O)[O-])c1ccc(Cl)cc1)C1CCCCC1.[Na+] (stereo partly drawn) [(85), Sodium 4-[(1-Butanoyloxy-1-cyclohexylmethoxy)carbonylamino]-(3R)-(4-chlorophenyl)-butanoate]	2		2	4	82	4	0	0	0						82					
CC(=O)OC(C)OC(=O)NC[C@H](CC(=O)[O-])c1ccc(Cl)cc1.[Na+] (stereo partly drawn) [(30), Sodium 4-[(1-Acetoxyethoxy)carbonylamino]-(3R)-(4-chlorophenyl)-butanoate]	7		1	8	58	24	0	1	3	81	87	85	85	42	70	3.8	100	87	9	
CCCC(=O)OCOC(=O)NC[C@H](CC(=O)[O-])c1ccc(Cl)cc1.[Na+] [(16), Sodium 4-[(Butanoyloxymethoxy)carbonylamino]-(3R)-(4-chlorophenyl)-butanoate]	1	1	1	20	54	1	0	0	0	100	100	100	62	40	100	5.1	100	100		
CC(C)C(=O)OC(OC(=O)NC[C@H](CC(=O)[O-])c1ccc(Cl)cc1)C(C)C.[Na+] (stereo partly drawn) [(25), Sodium 4-[(1-Isobutanoyloxyisobutoxy)carbonylamino]-(3R)-(4-chlorophenyl)-butanoate]	4		1	4	5	2	0	0	0	100										
NCC(CC(=O)O)c1ccc(Cl)cc1 (racemic) [Baclofen, (±)-4-Amino-3-(4-chlorophenyl)butanoic acid]																				poorly absorbed
CCCC(=O)O[C@H](CCC)OC(=O)NC[C@H](CC(=O)[O-])c1ccc(Cl)cc1.[Na+] [(86), Sodium 4-{[(1S)-Butanoyloxybutoxy]carbonylamino}-(3R)-(4-chlorophenyl)-butanoate]	2	4	2		1	2	0	1	2											
